Laboratory results taken from US11179348B2, “Combination comprising pterostilbene for the treatment of cancer” (FUNDACIÓN UNIVERSIDAD CATÓLICA DE VALENCIA SAN VICENTE …, priority 2015, dated 2021).
Marks after values point to notes of the source that are not given here.

Columns and labels:
human melanoma = experiment: Effect of pterostilbene on human melanoma in vivo (growth, Ki-67, TUNEL, nuclear Nrf2)
Procedure: Animals, Tumor Growth, and In Vivo Administration of Pter.
Female nu/nu nude mice (6-8 weeks; Charles Rivers Laboratories, Wilmington, Mass.) were fed ad libitum on a standard diet (Harlan Teklad Animal Diets & Bedding, Madison, Wis.). Mice were kept on a 12-h-light/12-h-dark cycle with the room temperature at 22° C. […] For cancer xenograft experiments, mice were inoculated s.c. with 10×10^6 cancer cells per mouse. Tumor volume was calculated based on two dimensions, measured using calipers, and was expressed in mm^3 according to V=0.5a×b^2, where a and b are the long and the short diameters of the tumor, respectively. For histological analysis xenograft samples were first fixed in 4% formaldehyde, paraffin embedded, and stained as indicated below. Mice were monitored after inoculation, and tumor measurements were taken every 2 days. For pharmacokinetic and treatment studies Pterostilbene (Green Molecular S. L., Paterna, Spain) [dissolved in DMSO:ethanol (2:1), 50 mg Pter/ml] was administered i.v. through the jugular vein (where, previously, a permanent catheter was surgically fixed). Administration was slowly performed during 1-2 min.
Monoclonal mouse anti-human HMB45 antibodies (Abcam, Cambridge, UK) were used for immunohistochemical detection of melanoma cells. For that purpose, the tumors were fixed and paraffin embedded as described above. Immunohistochemical analysis was applied to tissue slices (5 μm thick) following the standard methodology recommended by Abcam. A horseradish peroxidase-conjugated goat anti-mouse polyclonal (Abcam) was used as secondary antibody.
Monoclonal mouse anti-human Ki-67 (Dako, Sant Cugat del Vallés, Spain) were used for immunohistochemical detection of the tumor growing fraction. Immunohistochemical analysis was applied to tissue slices (5 μm thick) following the standard methodology recommended by Dako. A biotin-conjugated goat anti-rabbit polyclonal (Dako) was used as secondary antibody.
DNA strand breaks in apoptotic cells were assayed by using a direct TUNEL labeling assay (Boehringer, Mannheim, Germany) and fluorescence microscopy following manufacturer's methodology.
Nrf2 Gene Transfer and Measurement.
The Tet-Off Advanced Inducible Gene Expression System (Clontech, Palo Alto, Calif.) was used to insert the human Nrf2 gene and for transfection into melanoma cells following manufacturer's instructions. Tet-off cells stably expressed Tet-regulated pTRE-Tight-Nrf2 giving up to an increased Nrf2 gene expression (Tet-Nrf2 cells). To suppress Nrf2 protein levels Tet-Nrf2 cells were cultured in the presence of 2 mg tetracycline (Sigma)/10^6 cells. The NE-PER extraction kit from Thermo Scientific (Rockford, Ill.) was used for nuclear protein extraction according to the manufacturer's instructions. The protein content was determined by the Pierce BCA protein assay. The antibodies (mouse monoclonal primary antibodies) against Nrf2 were purchased from Abcam. A total of 50 mg of protein was boiled in Laemmli buffer and resolved by 12.0% SDS-PAGE. Proteins were transferred to a nitrocellulose membrane (Hybond C-extra, GE Healthcare Europe GmbH, Barcelona, Spain) and subjected to Western blotting. The blotted membrane was blocked for 1 h at room temperature in Tris-buffered saline (TBS) containing 5% (w/v) membrane-blocking reagent (non-fat dried milk). All antibody incubations were carried out at room temperature in TBS containing 1% membrane-blocking reagent. […] Protein bands were quantified using laser densitometry.

[1] = tested on: A549 cells isolated from tumor-bearing mice; experiment: Chemosensitization of cultured A549 cells isolated from xenografts; type: cell-based, human; settings: 72 h-cultured, PL 0.5 μM, Chemo 1 μM VRB and 15 μM cisPt, Pter = in vivo pretreatment
Procedure: FIGS. 18-25. Effect of piperlongumine and I-BET762, as GSH depleting and chemosensitizing agents, in in vitro growing human melanoma, pancreatic, breast, lung, liver, prostate, ovarian, and colorectal cancer cells. Cancer cells, isolated from Pter-treated tumor-bearing mice, were cultured as indicated under Methods. Chemotherapy (0.25 μM PAC.PBP in A2058 melanoma and MDA-MB-231 breast carcinoma cells; 0.125 μM PAC.PBP and 25 μM GTB in AsPC-1 pancreatic cancer cells; 1 μM VRB and 15 μM cisPt in A459 lung carcinoma cells; 0.15 μM DXR in HepG2 hepatocellular carcinoma cells; 15 nM DCT in PC-3 prostate carcinoma cells; 0.15 μM PAC.PBP and 25 μM CarboPt in SK-OV-3 ovarian carcinoma cells; 3 μM 5-FU, 1 μM FA and 0.6 μM IRI in HT-29 colorectal carcinoma cells) was added to the cultured flasks 24 h after seeding. […]
Human A2058, MeWo and MelJuso melanoma cells, and mouse AtT-20 pituitary corticotroph tumor cells were from the American Type Culture Collection (ATCC). […] Cell numbers were determined using a Coulter Counter (Coulter Electronic Inc., Miami, Fla.). […] Cellular viability was assessed as previously reported (Mena, S. et al. Clin Cancer Res 13, 2658-2666 (2007)), by measuring trypan blue exclusion and leakage of lactate dehydrogenase activity. […]

human breast cancer = settings: 20 μM Pter, 24 h, in vitro; cited from earlier work
B16-F1 melanoma = experiment: In vivo growth of murine B16-F1 melanoma; settings: B16-F1-RFP; 15 days after inoculation; Pter 30 mg/kg i.v. every 24 h, ± CRC
Procedure: FIG. 14. In vivo effect of Pter on tumor growth (A) and on corticosterone (B) and ACTH (C) levels in plasma of murine B16-F1 melanoma-bearing mice. Pter (30 mg/kg) was administered i.v. every 24 h for a period of 15 days, starting 3 days after tumor inoculation.

[2] = tumors of Pter-treated melanoma-bearing mice

Compound: COc1cc(/C=C/c2ccc(O)cc2)cc(OC)c1 [Pter, trans-3,5-dimethoxy-4′-hydroxystilbene]
- melanoma growth inhibition at lower dose (human melanoma; 20 mg/kg vs 30 mg/kg): less effective
- melanoma growth inhibition at higher dose (human melanoma; 40 mg/kg vs 30 mg/kg): no further inhibition
- nuclear Nrf2 in melanoma cells (human melanoma; in vivo Pter-treated vs control melanoma-bearing mice (FIG. 4C)): decreased
- apoptotic cell death in tumors (TUNEL) (human melanoma; [2]): increase
- melanoma cell proliferation in tumors (Ki-67 staining) (human melanoma; [2]): decrease
- Viable cells [1]: 1317 ± 255 ×10^6
- decrease in tumor cell viability (human breast cancer): ~25%
- Tumor vol. (B16-F1 melanoma): 790 ± 156* mm^3
